Key:
[1] = molecular target: Protein farnesyltransferase; assay: Displacement of radiolabeled FTI from Farnesyltransferase in v-Ha-ras-transformed Rat1 cells.; type: cell-based
[2] = molecular target: T1, Geranylgeranyl transferase type I (Homo sapiens, UniProt P49354+P53609); assay: Inhibition of the human Geranylgeranyl transferase type I catalyzed incorporation of [3H]GGPP into a biotinylated peptide corresponding to the C-terminus of human K-Ras.; type: functional
[3] = molecular target: Protein farnesyltransferase (Bos taurus, UniProt P29702+P49355); assay: Inhibition of Farnesyltransferase catalyzed incorporation of [3H]-FPP into recombinant Ras-CVIM.; type: functional
[4] = molecular target: Protein farnesyltransferase (Homo sapiens, UniProt P49354+P49356); assay: Inhibition of HDJ2 farnesylation in PSN-1 cells; type: functional, cell-based
[5] = molecular target: T1, Geranylgeranyl transferase type I; assay: Inhibition of geranylgeranylation of Rap1a in PSN-1 cells; type: functional, cell-based

| IC50 [1] [µM] | IC50 [2] [µM] | IC50 [3] [µM] | EC50 [4] [µM] | EC50 [5] [µM] | Compound |
| --- | --- | --- | --- | --- | --- |
| 0.029 | 0.14 | – | – | – | O=C1CN(Cc2cncn2Cc2ccc(-c3ccc(C(F)(F)F)cc3)cc2)CCN1c1cccc(Cl)c1 |
| 1.6 | 1.39 | 0.012 | – | – | O=C1CN(Cc2cncn2Cc2ccc(-c3ccccc3)cc2)CCN1c1cccc(Cl)c1 |
| – | 1.86 | 0.392 | – | – | COc1cc(C(F)(F)F)ccc1-c1ccc(Cn2cncc2CN2CCN(c3cccc(Cl)c3)C(=O)C2)cc1 |
| – | 1.87 | 3.5 | – | – | O=C1CN(Cc2cncn2Cc2ccc(-c3cc(C(F)(F)F)cc(C(F)(F)F)c3)cc2)CCN1c1cccc(Cl)c1 |
| 0.012 | 0.07 | 0.0016 | – | – | COc1cc(Cn2cncc2CN2CCN(c3cccc(Cl)c3)C(=O)C2)ccc1-c1ccc(C(F)(F)F)cc1 |
| 0.002 | 0.161 | 0.0012 | – | – | O=C1CN2CCc3cncn3Cc3ccc(Br)c(c3)Oc3ccc4cccc(c4c3)N1CC2 |
| – | 0.509 | 0.008 | – | – | O=C1CN2CCc3cncn3Cc3cccc(c3)Oc3ccc4cccc(c4c3)N1CC2 |
| 0.193 | 0.21 | 0.0087 | – | – | O=C1CN(Cc2cncn2Cc2ccc(-c3ccc(Cl)cc3)cc2)CCN1c1cccc(Cl)c1 |
| – | 8.45 | 0.017 | – | – | O=C1CN(Cc2cncn2Cc2ccc(-c3cccc(Cl)c3)cc2)CCN1c1cccc(Cl)c1 |
| 0.662 | 2.68 | 0.41 | – | – | O=C1CN(Cc2cncn2Cc2ccc(-c3cccc(C(F)(F)F)c3)cc2)CCN1c1cccc(Cl)c1 |
| 0.0012 | 0.151 | 0.00017 | 0.028 | 3.4 | COc1cc(Cn2cncc2CCN2CCN(c3cccc(Cl)c3)C(=O)C2)ccc1-c1ccc(C(F)(F)F)cc1 |
| – | 0.56 | 0.052 | – | – | O=C1CN(Cc2cncn2Cc2ccc(-c3ccc(OC(F)(F)F)cc3)nc2)CCN1c1cccc(Cl)c1 |
| 0.00081 | 0.0048 | 0.0061 | – | – | O=C1CN2CCc3cncn3Cc3ccc(C#CCCC(F)(F)F)c(c3)Oc3ccc4cccc(c4c3)N1CC2 |
| 0.25 | 2.3 | 0.019 | – | – | O=C1CN(Cc2cncn2Cc2ccc(-c3ccc(Cl)cc3)nc2)CCN1c1cccc(Cl)c1 |
| 0.00048 | 0.06 | 0.0031 | 0.0069 | 0.8 | O=C1CN2CCc3cncn3Cc3ccc(CCCCC(F)(F)F)c(c3)Oc3ccc4cccc(c4c3)N1CC2 |
| 0.662 | 1.34 | 0.015 | – | – | O=C1CN(Cc2cncn2Cc2ccc(-c3ccc(F)cc3)cc2)CCN1c1cccc(Cl)c1 |
| – | 2.48 | 0.0103 | – | – | CCCCc1ccc2cc1Oc1ccc3cccc(c3c1)N1CCN(CCc3cncn3C2)CC1=O |
| 0.6 | 3.03 | 0.035 | – | – | O=C1CN(Cc2cncn2Cc2ccc(-c3cc(Cl)cc(Cl)c3)cc2)CCN1c1cccc(Cl)c1 |
| 0.0011 | 0.0156 | 0.0021 | – | – | O=C1CN2CCc3cncn3Cc3ccc(-c4ccc(C(F)(F)F)cc4)c(c3)Oc3ccc4cccc(c4c3)N1CC2 |
| 0.159 | 0.509 | 0.014 | – | – | O=C1CN(Cc2cncn2Cc2ccc(-c3ccc(C(F)(F)F)cc3)nc2)CCN1c1cccc(Cl)c1 |
| – | – | 0.002 | – | – | N#Cc1ccc(Cn2cncc2CN2CCN(c3cccc(Cl)c3)C(=O)C2)cc1 [L-778123 FREE BASE] |

| Compound | IC50 [1] [µM] | IC50 [2] [µM] | IC50 [3] [µM] | EC50 [4] [µM] | EC50 [5] [µM] |
| --- | --- | --- | --- | --- | --- |
| N#Cc1ccc2cc1Oc1ccc3cccc(c3c1)N1CCN(CCc3cncn3C2)CC1=O | 0.00019 | 0.016 | 0.00025 | – | – |

Reference: ChEMBL document CHEMBL1135967, “Potent inhibitors of farnesyltransferase and geranylgeranyltransferase-I” (Bioorg Med Chem Lett, 2002)
